Experimental data as given in article PMC6716157 (Journal of the American Chemical Society, 2019).

Assays:
[1] = biological target: MsCDH (carveol dehydrogenase, Msmeg_1410) (Mycolicibacterium smegmatis, UniProt A0QSA5); experiment: UV-vis absorbance of copurified NADH at […] nm; type: binding; conditions: pH 7.0, non-exchangeable, oxidised by PMFT
MuMftD (MftD) = biological target: T1, MuMftD (MftD) (Mycobacterium ulcerans, UniProt A0PM50); experiment: HPLC of flavin released by heat from purified protein; type: binding; conditions: copurified; bound reduced as isolated, released on oxidation
T1 sequence (A0PM50 1-390): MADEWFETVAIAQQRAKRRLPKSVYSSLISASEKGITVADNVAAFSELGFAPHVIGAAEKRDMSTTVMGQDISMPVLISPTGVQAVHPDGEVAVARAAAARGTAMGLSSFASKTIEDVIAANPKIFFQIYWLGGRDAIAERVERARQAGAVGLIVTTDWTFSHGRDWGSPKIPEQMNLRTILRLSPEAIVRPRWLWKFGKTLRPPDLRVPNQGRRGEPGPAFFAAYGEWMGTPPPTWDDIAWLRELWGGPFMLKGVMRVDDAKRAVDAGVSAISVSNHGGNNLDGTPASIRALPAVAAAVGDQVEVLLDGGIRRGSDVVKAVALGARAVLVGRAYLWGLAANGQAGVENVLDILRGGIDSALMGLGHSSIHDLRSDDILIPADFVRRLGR

MsMftD = MsMftD (Mycolicibacterium smegmatis, UniProt A0QSB9); experiment: HPLC of product, aerobic; type: biochemical; conditions: oxidative deamination to PMFT
MsMftD, sequence (A0QSB9 whole entry): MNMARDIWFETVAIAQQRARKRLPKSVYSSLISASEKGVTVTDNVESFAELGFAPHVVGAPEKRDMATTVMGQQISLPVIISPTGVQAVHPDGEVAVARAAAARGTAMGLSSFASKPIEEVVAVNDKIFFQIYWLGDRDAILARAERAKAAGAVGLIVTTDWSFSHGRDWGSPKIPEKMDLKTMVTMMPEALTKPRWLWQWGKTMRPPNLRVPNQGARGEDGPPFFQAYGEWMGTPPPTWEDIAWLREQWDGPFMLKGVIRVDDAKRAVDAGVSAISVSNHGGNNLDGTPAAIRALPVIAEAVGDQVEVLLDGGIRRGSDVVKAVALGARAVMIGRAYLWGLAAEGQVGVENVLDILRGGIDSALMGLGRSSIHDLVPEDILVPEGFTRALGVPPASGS

MsCDH (carveol dehydrogenase, Msmeg_1410), sequence (A0QSA5 1-283): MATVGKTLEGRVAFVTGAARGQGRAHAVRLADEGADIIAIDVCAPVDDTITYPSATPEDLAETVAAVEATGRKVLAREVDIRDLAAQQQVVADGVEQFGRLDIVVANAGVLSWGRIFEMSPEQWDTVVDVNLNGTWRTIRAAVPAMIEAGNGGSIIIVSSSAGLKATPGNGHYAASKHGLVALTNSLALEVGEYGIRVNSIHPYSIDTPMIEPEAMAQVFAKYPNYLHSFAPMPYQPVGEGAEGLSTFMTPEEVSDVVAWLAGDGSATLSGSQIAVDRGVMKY

Structure (SMILES): NC(=O)C1=CN([C@@H]2O[C@H](COP(=O)(O)OP(=O)(O)OC[C@H]3O[C@@H](n4cnc5c(N)ncnc54)[C@H](O)[C@@H]3O)[C@@H](O)[C@H]2O)C=CC1 [NADH]
- UV-vis absorbance of copurified NADH at 340 nm [1]: PMFT is mediating the oxidation of NADH to NAD^+ on MsCDH

Structure (SMILES): Cc1cc2nc3c(=O)[nH]c(=O)nc-3n(C[C@H](O)[C@H](O)[C@H](O)COP(=O)(O)O)c2cc1C [FMN]
- HPLC of flavin released by heat from purified protein; UV-vis (MuMftD (MftD)): the absorbance features of the cofactor bound to MuMftD originated from FMN

Structure (SMILES): CC1(C)C(Cc2ccc(O)cc2)NC(=O)C1N (stereo not drawn) [AHDP, 3-amino-5-[(p-hydroxyphenyl)methyl]-4,4-dimethyl-2-pyrrolidinone]
- HPLC of product, aerobic (MsMftD): the HPLC chromatogram for the MsMftD reaction showed similar results to that of MuMftD
